Measured values taken from PubChem BioAssay (NCI).
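Tested at 5 concentrations; 48 h exposure; 96-well plates; endpoints linearly interpolated, else capped at highest concentration. TGI denotes the concentration required for complete inhibition of growth.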

Experiments:
Assay in all cases: inhibition of tumour cell growth, NCI panel, 48 h
OVCAR-5 ovarian = tested on: OVCAR-5 ovarian
COLO 205 colon = tested on: COLO 205 colon
HS 578T breast = tested on: HS 578T breast
SK-MEL-2 melanoma = tested on: SK-MEL-2 melanoma
SK-MEL-5 melanoma = tested on: SK-MEL-5 melanoma
M14 melanoma = tested on: M14 melanoma
SNB-75 CNS = tested on: SNB-75 CNS
MDA-N = tested on: MDA-N
786-0 renal = tested on: 786-0 renal
LOX IMVI melanoma = tested on: LOX IMVI melanoma
OVCAR-4 ovarian = tested on: OVCAR-4 ovarian
CCRF-CEM leukemia = tested on: CCRF-CEM leukemia
SNB-19 CNS = tested on: SNB-19 CNS
HCC-2998 colon = tested on: HCC-2998 colon
NCI-H23 lung = tested on: NCI-H23 lung
RXF 393 renal = tested on: RXF 393 renal
SK-MEL-28 melanoma = tested on: SK-MEL-28 melanoma
HOP-62 NSCLC = tested on: HOP-62 NSCLC
UACC-62 melanoma = tested on: UACC-62 melanoma
UACC-257 melanoma = tested on: UACC-257 melanoma
HT29 colon = tested on: HT29 colon
U251 CNS = tested on: U251 CNS
NCI-H460 lung = tested on: NCI-H460 lung
SF-539 CNS = tested on: SF-539 CNS
NCI-H522 lung = tested on: NCI-H522 lung
MDA-MB-231 breast = tested on: MDA-MB-231 breast
OVCAR-3 ovarian = tested on: OVCAR-3 ovarian
CAKI-1 renal = tested on: CAKI-1 renal
MALME-3M melanoma = tested on: MALME-3M melanoma
KM12 colon = tested on: KM12 colon
BT-549 breast = tested on: BT-549 breast
A498 renal = tested on: A498 renal
NCI/ADR-RES ovarian = tested on: NCI/ADR-RES ovarian
UO-31 renal = tested on: UO-31 renal
IGROV1 ovarian = tested on: IGROV1 ovarian
RPMI-8226 leukemia = tested on: RPMI-8226 leukemia
TK-10 renal = tested on: TK-10 renal
HCT-116 colon = tested on: HCT-116 colon
PC-3 prostate = tested on: PC-3 prostate
MCF7 breast = tested on: MCF7 breast
DU-145 prostate = tested on: DU-145 prostate
K-562 leukemia = tested on: K-562 leukemia
ACHN renal = tested on: ACHN renal
T-47D breast = tested on: T-47D breast
MDA-MB-435 = tested on: MDA-MB-435
A549 NSCLC = tested on: A549 NSCLC
SR leukemia = tested on: SR leukemia
SF-268 CNS = tested on: SF-268 CNS
OVCAR-8 ovarian = tested on: OVCAR-8 ovarian
SN12C renal = tested on: SN12C renal
SW-620 colon = tested on: SW-620 colon
SK-OV-3 ovarian = tested on: SK-OV-3 ovarian
HL-60(TB) leukemia = tested on: HL-60(TB) leukemia
SF-295 CNS = tested on: SF-295 CNS
EKVX NSCLC = tested on: EKVX NSCLC
HOP-92 NSCLC = tested on: HOP-92 NSCLC
MOLT-4 leukemia = tested on: MOLT-4 leukemia
HCT-15 colon = tested on: HCT-15 colon
NCI-H226 lung = tested on: NCI-H226 lung

SMILES: CCOC(=O)Cc1c(C(=O)OCC)[n+](=O)c2cc(Cl)c(Cl)cc2n1[O-]
- TGI (OVCAR-5 ovarian): 5.24 µM
- TGI (COLO 205 colon): 3.27 µM
- TGI (HS 578T breast): 6.46 µM
- TGI (SK-MEL-2 melanoma): 7.73 µM
- TGI (SK-MEL-5 melanoma): 3.04 µM
- TGI (M14 melanoma): 5.98 µM
- TGI (SNB-75 CNS): 4.63 µM
- TGI (MDA-N): 11.9 µM
- TGI (786-0 renal): 3.84 µM
- TGI (LOX IMVI melanoma): 4.65 µM
- TGI (OVCAR-4 ovarian): 3.51 µM
- TGI (CCRF-CEM leukemia): 6.29 µM
- TGI (SNB-19 CNS): 11.9 µM
- TGI (HCC-2998 colon): 5.1 µM
- TGI (NCI-H23 lung): 5.49 µM
- TGI (RXF 393 renal): 4.91 µM
- TGI (SK-MEL-28 melanoma): 17.4 µM
- TGI (HOP-62 NSCLC): 4.27 µM
- TGI (UACC-62 melanoma): 5.45 µM
- TGI (UACC-257 melanoma): 5.51 µM
- TGI (HT29 colon): 5.2 µM
- TGI (U251 CNS): 9.67 µM
- TGI (NCI-H460 lung): 3.46 µM
- TGI (SF-539 CNS): 5.44 µM
- TGI (NCI-H522 lung): 3.63 µM
- TGI (MDA-MB-231 breast): 7.02 µM
- TGI (OVCAR-3 ovarian): 5.04 µM
- TGI (CAKI-1 renal): 11.1 µM
- TGI (MALME-3M melanoma): 3.21 µM
- TGI (KM12 colon): 2.95 µM
- TGI (BT-549 breast): 6.53 µM
- TGI (A498 renal): 6.14 µM
- TGI (NCI/ADR-RES ovarian): 8.61 µM
- TGI (UO-31 renal): 3.36 µM
- TGI (IGROV1 ovarian): 2.35 µM
- TGI (RPMI-8226 leukemia): 2.18 µM
- TGI (TK-10 renal): 2.83 µM
- TGI (HCT-116 colon): 7.27 µM
- TGI (PC-3 prostate): 4.69 µM
- TGI (MCF7 breast): 13.3 µM
- TGI (DU-145 prostate): 3.68 µM
- TGI (K-562 leukemia): 5.65 µM
- TGI (ACHN renal): 3.38 µM
- TGI (T-47D breast): 6.76 µM
- TGI (MDA-MB-435): 9.03 µM
- TGI (A549 NSCLC): 3.72 µM
- TGI (SR leukemia): 2.11 µM
- TGI (SF-268 CNS): 7.87 µM
- TGI (OVCAR-8 ovarian): 6.2 µM
- TGI (SN12C renal): 6.95 µM
- TGI (SW-620 colon): 4.08 µM
- TGI (SK-OV-3 ovarian): 11.9 µM
- TGI (HL-60(TB) leukemia): 5.74 µM
- TGI (SF-295 CNS): 13.5 µM
- TGI (EKVX NSCLC): 11.4 µM

SMILES: C=CCOCC1C2CCC3(OCCO3)C21 (stereo not given)
- TGI (OVCAR-5 ovarian): > 100 µM
- TGI (COLO 205 colon): > 100 µM
- TGI (SK-MEL-2 melanoma): > 100 µM
- TGI (SK-MEL-5 melanoma): > 100 µM
- TGI (M14 melanoma): > 100 µM
- TGI (SNB-75 CNS): > 100 µM
- TGI (MDA-N): > 100 µM
- TGI (786-0 renal): > 100 µM
- TGI (LOX IMVI melanoma): > 100 µM
- TGI (OVCAR-4 ovarian): > 100 µM
- TGI (CCRF-CEM leukemia): > 100 µM
- TGI (SNB-19 CNS): > 100 µM
- TGI (HCC-2998 colon): > 100 µM
- TGI (NCI-H23 lung): > 100 µM
- TGI (RXF 393 renal): > 100 µM
- TGI (SK-MEL-28 melanoma): > 100 µM
- TGI (HOP-62 NSCLC): > 100 µM
- TGI (UACC-62 melanoma): > 100 µM
- TGI (UACC-257 melanoma): > 100 µM
- TGI (HT29 colon): > 100 µM
- TGI (U251 CNS): > 100 µM
- TGI (NCI-H460 lung): > 100 µM
- TGI (SF-539 CNS): > 100 µM
- TGI (NCI-H522 lung): > 100 µM
- TGI (MDA-MB-231 breast): > 100 µM
- TGI (OVCAR-3 ovarian): > 100 µM
- TGI (CAKI-1 renal): 87.5 µM
- TGI (MALME-3M melanoma): > 100 µM
- TGI (KM12 colon): > 100 µM
- TGI (BT-549 breast): > 100 µM
- TGI (NCI/ADR-RES ovarian): > 100 µM
- TGI (UO-31 renal): 75.2 µM
- TGI (IGROV1 ovarian): > 100 µM
- TGI (RPMI-8226 leukemia): > 100 µM
- TGI (HOP-92 NSCLC): > 100 µM
- TGI (TK-10 renal): > 100 µM
- TGI (HCT-116 colon): > 100 µM
- TGI (MOLT-4 leukemia): > 100 µM
- TGI (PC-3 prostate): > 100 µM
- TGI (MCF7 breast): > 100 µM
- TGI (DU-145 prostate): > 100 µM
- TGI (K-562 leukemia): > 100 µM
- TGI (ACHN renal): > 100 µM
- TGI (MDA-MB-435): > 100 µM
- TGI (A549 NSCLC): > 100 µM
- TGI (SR leukemia): > 100 µM
- TGI (SF-268 CNS): > 100 µM
- TGI (OVCAR-8 ovarian): > 100 µM
- TGI (HCT-15 colon): > 100 µM
- TGI (SN12C renal): > 100 µM
- TGI (SW-620 colon): > 100 µM
- TGI (SK-OV-3 ovarian): > 100 µM
- TGI (SF-295 CNS): > 100 µM
- TGI (NCI-H226 lung): > 100 µM
- TGI (EKVX NSCLC): > 100 µM

SMILES: COC1C(OC(=O)c2ccc(C)[nH]2)C(O)C(Oc2ccc3c(O)c(NC(=O)c4ccc(O)c(CC=C(C)C)c4)c(=O)oc3c2Cl)OC1(C)C (stereo not given)
- TGI (OVCAR-5 ovarian): 33.2 µM
- TGI (COLO 205 colon): 52.8 µM
- TGI (HS 578T breast): 61.9 µM
- TGI (SK-MEL-2 melanoma): 27 µM
- TGI (SK-MEL-5 melanoma): 35.6 µM
- TGI (M14 melanoma): 32.2 µM
- TGI (SNB-75 CNS): 72.9 µM
- TGI (MDA-N): > 100 µM
- TGI (786-0 renal): 31.9 µM
- TGI (LOX IMVI melanoma): 38.4 µM
- TGI (OVCAR-4 ovarian): 99.6 µM
- TGI (CCRF-CEM leukemia): 58.9 µM
- TGI (SNB-19 CNS): 30 µM
- TGI (HCC-2998 colon): 33.2 µM
- TGI (NCI-H23 lung): 45.5 µM
- TGI (SK-MEL-28 melanoma): 32.9 µM
- TGI (HOP-62 NSCLC): 33.4 µM
- TGI (UACC-62 melanoma): 32.9 µM
- TGI (UACC-257 melanoma): > 100 µM
- TGI (HT29 colon): 29.7 µM
- TGI (U251 CNS): 26.8 µM
- TGI (NCI-H460 lung): 69.5 µM
- TGI (SF-539 CNS): 38.1 µM
- TGI (NCI-H522 lung): 29.8 µM
- TGI (MDA-MB-231 breast): 49.4 µM
- TGI (OVCAR-3 ovarian): 43.6 µM
- TGI (CAKI-1 renal): 36.2 µM
- TGI (MALME-3M melanoma): 34 µM
- TGI (KM12 colon): 26.1 µM
- TGI (BT-549 breast): 42.5 µM
- TGI (A498 renal): 33 µM
- TGI (IGROV1 ovarian): 39.2 µM
- TGI (RPMI-8226 leukemia): 30.4 µM
- TGI (TK-10 renal): > 100 µM
- TGI (HCT-116 colon): 33.1 µM
- TGI (MOLT-4 leukemia): 45.8 µM
- TGI (PC-3 prostate): 29.3 µM
- TGI (MCF7 breast): 54.2 µM
- TGI (DU-145 prostate): 75.4 µM
- TGI (K-562 leukemia): > 100 µM
- TGI (ACHN renal): 77.5 µM
- TGI (T-47D breast): 36.5 µM
- TGI (MDA-MB-435): > 100 µM
- TGI (A549 NSCLC): 91.7 µM
- TGI (SR leukemia): 56.9 µM
- TGI (SF-268 CNS): 57.4 µM
- TGI (OVCAR-8 ovarian): 52 µM
- TGI (HCT-15 colon): 38.1 µM
- TGI (SN12C renal): 53.2 µM
- TGI (SW-620 colon): 38 µM
- TGI (SK-OV-3 ovarian): 54.6 µM
- TGI (HL-60(TB) leukemia): > 100 µM
- TGI (SF-295 CNS): 43.4 µM
- TGI (NCI-H226 lung): 36.7 µM
- TGI (EKVX NSCLC): 61.9 µM
